Data published in ChEMBL document CHEMBL5506031, “Design, Synthesis, Bioactive Evaluation, and Molecular Dynamics Simulation of Novel 4H-Pyrano[3,2-c]pyridine Analogues as Potential Sterol 14α-Demethylase (CYP51) Inhibitors” (J Med Chem, 2024).
In brackets after ≈: the same amount, converted by molar mass.

Key:
[1] = test system: Sclerotinia sclerotiorum; experiment: Fungicidal activity against Sclerotinia sclerotiorum assessed as fungal inhibitory rate at 16 ug/ml relative to control; assay type: functional
[2] = test system: Colletotrichum lagenaria; experiment: Fungicidal activity against Colletotrichum lagenarium assessed as fungal inhibitory rate at 16 ug/ml relative to control; assay type: functional
[3] = test system: Penicillium digitatum; experiment: Fungicidal activity against Penicillium digitatum assessed as fungal inhibitory rate at 16 ug/ml relative to control; assay type: functional
[4] = test system: Fusarium oxysporum; experiment: Fungicidal activity against Fusarium oxysporum assessed as fungal inhibitory rate at 16 ug/ml relative to control; assay type: functional
[5] = test system: Botrytis cinerea; experiment: Fungicidal activity against Botrytis cinerea assessed as fungal growth reduction; assay type: functional, organism-based
[6] = Inhibition of Botrytis cinerea CYP51 by ELISA
[7] = test system: Botrytis cinerea; experiment: Fungicidal activity against Botrytis cinerea assessed as fungal inhibitory rate at 16 ug/ml relative to control; assay type: functional

Row | IC50 [6] [µg/mL] | SMILES | inhibition at 16 µg/mL [1] [%] | inhibition at 16 µg/mL [2] [%] | inhibition at 16 µg/mL [3] [%] | inhibition at 16 µg/mL [4] [%] | EC50 [5] [µg/mL] | inhibition at 16 µg/mL [7] [%]
1 | 3.031 (≈ 4.88 µM) | N#CC1=C(N)OC2=C(CN(C(=O)c3cccs3)C/C2=C\c2ccc(Br)s2)C1c1ccc(Br)s1 (stereo not drawn) | 48.9 | 44.3 | 42.2 | 41 | 2.71 (≈ 4.36 µM) | –
2 | 1.86 (≈ 3.24 µM) | N#CC1=C(N)OC2=C(CN(C(=O)c3ccco3)C/C2=C\c2ccc(Br)o2)C1c1ccc(Br)o1 (stereo not drawn) | 55.2 | 55.8 | 49 | 50.5 | 1.71 (≈ 2.98 µM) | 100
3 | 0.831 (≈ 1.51 µM) | COC(=O)C1=C(N)OC2=C(CN(C(=O)c3ccco3)C/C2=C\c2ccc(Cl)s2)C1c1ccc(Cl)s1 (stereo not drawn) | – | 75.7 | 70 | 77.7 | 0.761 (≈ 1.39 µM) | 100
4 | – | N#CC1=C(N)OC2=C(CN(C(=O)c3cccs3)C/C2=C\c2cccs2)C1c1cccs1 (stereo not drawn) | 37.6 | 33.7 | 30.2 | – | – | 73.6
5 | – | CN1CC2=C(OC(N)=C(C#N)C2c2ccc(Br)o2)/C(=C/c2ccc(Br)o2)C1 (stereo not drawn) | 87.2 | – | 78.2 | 52.2 | – | 72.8
6 | – | CN1CC2=C(OC(N)=C(C#N)C2c2ccc(Cl)s2)/C(=C/c2ccc(Cl)s2)C1 (stereo not drawn) | 64.9 | 66 | 46.8 | 34.5 | – | 48.5
7 | – | COC(=O)C1=C(N)OC2=C(CN(C)C/C2=C\c2ccc(Cl)s2)C1c1ccc(Cl)s1 (stereo not drawn) | 49.6 | 42.9 | 30 | 23.6 | – | 35.2
8 | – | COC(=O)C1=C(N)OC2=C(CN(C)C/C2=C\c2ccc(Br)s2)C1c1ccc(Br)s1 (stereo not drawn) | 38.3 | 33.6 | 22.5 | 20.3 | – | 31.6
9 | 2.625 (≈ 4.93 µM) | N#CC1=C(N)OC2=C(CN(C(=O)c3cccs3)C/C2=C\c2ccc(Cl)s2)C1c1ccc(Cl)s1 (stereo not drawn) | 50.8 | 48.7 | 44.8 | 43.5 | 2.25 (≈ 4.22 µM) | 92.9
10 | – | Cc1ccc(/C=C2\CN(C(=O)c3cccs3)CC3=C2OC(N)=C(C#N)C3c2ccc(C)s2)s1 (stereo not drawn) | 21.1 | 20.5 | 20.1 | 20.3 | – | 51.8
11 | – | Cc1ccc(/C=C2\CN(C)CC3=C2OC(N)=C(C#N)C3c2ccc(C)o2)o1 (stereo not drawn) | 81.6 | 84.8 | 74 | 48.5 | – | 65.6
12 | – | Cc1ccc(/C=C2\CN(C(=O)c3ccco3)CC3=C2OC(N)=C(C#N)C3c2ccc(C)s2)s1 (stereo not drawn) | – | 31.1 | 28.5 | 27.6 | – | 70.1
13 | – | COC(=O)C1=C(N)OC2=C(CN(C(=O)c3cccs3)C/C2=C\c2cccs2)C1c1cccs1 (stereo not drawn) | 40.5 | 36.4 | 33.8 | 31.5 | – | 78.4
14 | – | CN1CC2=C(OC(N)=C(C#N)C2c2cccs2)/C(=C/c2cccs2)C1 (stereo not drawn) | 68.8 | 70.9 | – | 38.9 | – | 50.2
15 | 1.425 (≈ 3.43 µM) | N#CC1=C(N)OC2=C(CN(C(=O)c3ccco3)C/C2=C\c2ccco2)C1c1ccco1 (stereo not drawn) | 65.4 | – | 58.2 | – | 1.17 (≈ 2.82 µM) | 100
16 | – | COC(=O)C1=C(N)OC2=C(CN(C(=O)c3ccco3)C/C2=C\c2cccs2)C1c1cccs1 (stereo not drawn) | 43.4 | 38.2 | 36.1 | 34 | – | 82.2
17 | 1.649 (≈ 3.82 µM) | N#CC1=C(N)OC2=C(CN(C(=O)c3cccs3)C/C2=C\c2ccco2)C1c1ccco1 (stereo not drawn) | 58.5 | 57 | 51.7 | 52.7 | 1.34 (≈ 3.1 µM) | 100
18 | 2.333 (≈ 4.52 µM) | N#CC1=C(N)OC2=C(CN(C(=O)c3ccco3)C/C2=C\c2ccc(Cl)s2)C1c1ccc(Cl)s1 (stereo not drawn) | 53.5 | 52.5 | 47.1 | 46.6 | 2.07 (≈ 4.01 µM) | 94
19 | 1.522 (≈ 2.58 µM) | N#CC1=C(N)OC2=C(CN(C(=O)c3cccs3)C/C2=C\c2ccc(Br)o2)C1c1ccc(Br)o1 (stereo not drawn) | 62.7 | – | 54.5 | 55.2 | 1.3 (≈ 2.21 µM) | 100
20 | – | N#CC1=C(N)OC2=C(CN(C(=O)c3ccco3)C/C2=C\c2cccs2)C1c1cccs1 (stereo not drawn) | 27.9 | – | – | 23.8 | – | 62.7
21 | – | COC(=O)C1=C(N)OC2=C(CN(C)C/C2=C\c2ccco2)C1c1ccco1 (stereo not drawn) | 73.7 | 76.5 | 60.9 | 41.7 | – | 56.7
22 | – | COC(=O)C1=C(N)OC2=C(CN(C)C/C2=C\c2cccs2)C1c1cccs1 (stereo not drawn) | 57.2 | 51.8 | 34.2 | 25.8 | – | 38.8
23 | 1.138 (≈ 1.78 µM) | COC(=O)C1=C(N)OC2=C(CN(C(=O)c3ccco3)C/C2=C\c2ccc(Br)s2)C1c1ccc(Br)s1 (stereo not drawn) | 71.6 | 69.3 | 64.3 | 67.5 | 0.976 (≈ 1.53 µM) | 100
24 | – | Cc1ccc(/C=C2\CN(C(=O)c3cccs3)CC3=C2OC(N)=C(C#N)C3c2ccc(C)o2)o1 (stereo not drawn) | 24.7 | 23.4 | 21.9 | 22.9 | – | 56.9
25 | – | Cc1ccc(/C=C2\CN(C)CC3=C2OC(N)=C(C#N)C3c2ccc(C)s2)s1 (stereo not drawn) | 58.6 | 57.6 | 38.9 | 27.6 | – | –
26 | – | COC(=O)C1=C(N)OC2=C(CN(C)C/C2=C\c2ccc(Br)o2)C1c1ccc(Br)o1 (stereo not drawn) | 77.4 | – | – | 45.6 | – | 60
27 | – | N#CC1=C(N)OC2=C(CN(C(=O)c3ccco3)C/C2=C\c2ccc(Br)s2)C1c1ccc(Br)s1 (stereo not drawn) | 31.6 | 28.1 | 25.7 | 25 | – | 66.5
28 | – | Cc1ccc(/C=C2\CN(C(=O)c3ccco3)CC3=C2OC(N)=C(C#N)C3c2ccc(C)o2)o1 (stereo not drawn) | 46.2 | – | 39 | 38.1 | – | 85.4
29 | – | CN1CC2=C(OC(N)=C(C#N)C2c2ccc(Br)s2)/C(=C/c2ccc(Br)s2)C1 (stereo not drawn) | 60.7 | 60.5 | 42.5 | 31.2 | – | 44.8
